Assay results published in the supplement of paper PMC10307832.

Tests used:
Assay in all cases: relative viability (nuclei count vs DMSO), 5 days (fraction); higher = more cells survive
Motesanib = compound: CC1(C)CNc2cc(NC(=O)c3cccnc3NCc3ccncc3)ccc21 [Motesanib]
How it was run: (§1)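 Five library-drug doses, separated by factors of √10, were pinned into 1536-well plates holding lung cancer cell lines after an overnight stay at 37 °C. Cells were fixed, permeabilised and Hoechst-stained in one step after 5 days without medium change, then imaged at 4×. Viability compares treated-well with vehicle-well nuclei, counted in MetaXpress, as a median across plates. Passing plates had control CV below 25% and at least one doubling.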

[1] = compound: C[C@@]1(C(=O)Nc2ccc(F)nc2)CCCN1c1nc(Nc2cc(C3CC3)n[nH]2)c2cccn2n1
How it was run: as §1

Motesanib + Trametinib = compound: CC1(C)CNc2cc(NC(=O)c3cccnc3NCc3ccncc3)ccc21 [Motesanib] + CC(=O)Nc1cccc(-n2c(=O)n(C3CC3)c(=O)c3c(Nc4ccc(I)cc4F)n(C)c(=O)c(C)c32)c1 [Trametinib] (partner 0.02 µM)
How it was run: (§2)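 Dosing by pin tool came one day after lung cancer cell lines were seeded in 1536-well plates, using either one drug or a fixed anchor-drug dose plus five library-drug doses (not always all listed) in √10 steps. After 5 days, nuclei were counted on 4× images. Relative viability is treated-well nuclei count divided by vehicle-well nuclei count, and values are medians of duplicate plates.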

[2] = compound: C[C@@]1(C(=O)Nc2ccc(F)nc2)CCCN1c1nc(Nc2cc(C3CC3)n[nH]2)c2cccn2n1 + CC1(C)CCC(c2ccc(Cl)cc2)=C(CN2CCN(c3ccc(C(=O)NS(=O)(=O)c4ccc(N[C@H](CCN5CCOCC5)CSc5ccccc5)c(S(=O)(=O)C(F)(F)F)c4)cc3)CC2)C1 [Navitoclax] (partner 0.5 µM)
How it was run: as §2

| Cell Line | relative viability (Motesanib; 0.01 µM) | relative viability (Motesanib; 0.03162 µM) | relative viability (Motesanib; 0.1 µM) | relative viability (Motesanib; 0.3162 µM) | relative viability (Motesanib; 1 µM) | relative viability ([1]; 0.04 µM) | relative viability ([1]; 0.1265 µM) | relative viability ([1]; 0.4 µM) | relative viability ([1]; 1.265 µM) | relative viability (Motesanib + Trametinib; first compound 0.01 µM) | relative viability (Motesanib + Trametinib; first compound 0.03162 µM) | relative viability (Motesanib + Trametinib; first compound 0.1 µM) | relative viability (Motesanib + Trametinib; first compound 0.3162 µM) | relative viability (Motesanib + Trametinib; first compound 1 µM) | relative viability ([2]; first compound 0.04 µM) | relative viability ([2]; first compound 0.1265 µM) | relative viability ([2]; first compound 0.4 µM) | relative viability ([2]; first compound 1.265 µM) |
| --- | --- | --- | --- | --- | --- | --- | --- | --- | --- | --- | --- | --- | --- | --- | --- | --- | --- | --- |
| LC-2-ad | 0.992 | 0.974 | 1.01 | 1.07 | 0.981 | 0.89 | 0.845 | 0.752 | 0.625 | 0.9 | 0.903 | 0.865 | 0.871 | 0.84 | 0.379 | 0.373 | 0.296 | 0.143 |
| COR-L 105 | 1.05 | 0.875 | 0.905 | 0.957 | 0.997 | 1.01 | 0.662 | 0.781 | 0.681 | 0.451 | 0.383 | 0.41 | 0.422 | 0.448 | 0.788 | 0.477 | 0.65 | 0.607 |
| NCI-H1355 | 1.03 | 1.02 | 0.978 | 1.04 | 1.01 | 0.96 | 0.794 | 0.797 | 0.818 | 0.398 | 0.473 | 0.463 | 0.4 | 0.459 | 0.776 | 0.924 | 0.787 | 0.86 |
| H3255 | 0.905 | 1.04 | 0.978 | 1.05 | 1.01 | 1.05 | 0.954 | 0.931 | 0.882 | 0.533 | 0.681 | 0.684 | 0.626 | 0.67 | 0.684 | 0.463 | 0.49 | 0.36 |
| NCI-H1993 | 0.993 | 0.941 | 0.977 | 0.963 | 1.06 | 0.732 | 0.696 | 0.649 | 0.686 | 0.598 | 0.566 | 0.49 | 0.718 | 0.5 | 0.692 |  | 0.671 | 0.716 |
| NCI-H1734 | 0.968 | 1.01 | 0.948 | 1.07 | 1.01 | 0.855 | 0.721 | 0.651 | 0.615 | 0.6 | 0.625 | 0.644 | 0.676 | 0.723 | 0.834 | 0.593 | 0.661 | 0.731 |
| HOP-62 | 1.06 | 1.04 | 1.12 | 1.09 | 1.11 | 1.03 | 0.97 | 0.914 | 1.08 | 0.366 | 0.379 | 0.37 | 0.405 | 0.424 | 1.12 | 0.887 | 0.826 | 1.03 |
| LOU-NH91 | 0.94 | 0.982 | 1.12 | 0.993 | 0.995 | 0.94 | 0.94 | 0.894 | 0.841 | 0.789 | 0.767 | 0.819 | 0.802 | 0.781 | 0.706 | 0.77 | 0.61 | 0.686 |
| ChaGo-K-1 | 0.973 | 0.931 | 0.932 | 0.999 | 1.04 | 0.955 | 0.826 | 0.899 | 0.914 | 0.894 | 0.889 | 0.91 | 0.942 | 0.95 | 0.917 | 0.616 | 1.06 | 0.673 |
| NCI-H2228 | 1.1 | 1.03 | 0.971 | 1.11 | 1.06 | 0.857 | 0.781 | 0.743 | 0.652 | 0.395 | 0.764 | 0.459 | 0.505 | 0.466 | 0.561 | 0.762 | 0.723 | 0.633 |
| PC-14 | 0.977 | 0.995 | 0.974 | 1.07 | 1.05 | 1.04 | 0.769 | 0.875 | 0.946 | 0.809 | 0.8 | 0.817 | 0.79 | 0.93 | 0.99 | 0.69 | 0.959 | 0.941 |
| NCI-H1437 | 0.964 | 0.958 | 0.998 | 1 | 0.957 | 1.04 | 0.918 | 0.679 | 0.714 | 0.587 | 0.471 | 0.529 | 0.492 | 0.518 | 1.04 | 0.828 | 0.739 | 0.919 |
| NCI-H460 | 0.999 | 0.974 | 0.981 | 1.02 | 1 | 0.982 | 1.01 | 1.01 | 0.953 | 0.139 | 0.104 | 0.209 | 0.179 | 0.142 | 1.08 | 0.893 | 1.01 | 1.23 |
| NCI-H1666 | 1.04 | 0.965 | 0.976 | 0.99 | 1.08 | 0.932 | 0.83 | 0.773 | 0.753 | 0.736 | 0.904 | 0.905 | 0.858 | 0.838 | 0.823 | 0.777 | 0.578 | 0.581 |
| NCI-H1651 | 1.02 | 0.912 | 0.946 | 0.962 | 0.947 | 0.956 | 0.883 | 0.82 | 0.923 | 0.817 | 0.796 | 0.777 | 0.849 | 0.847 | 0.963 | 1.12 | 0.861 | 1.16 |
| NCI-H1755 | 1.01 | 0.989 | 1.03 | 1.07 | 1.03 | 1.02 | 0.875 | 0.92 | 0.958 | 0.782 | 0.765 | 0.799 | 0.85 | 0.831 | 1 | 0.864 | 0.913 | 0.971 |
| HARA | 0.959 | 1.1 | 0.909 | 1.09 | 0.997 | 0.815 | 1.01 | 0.756 | 0.723 | 0.649 | 0.454 | 0.598 | 0.918 | 0.441 | 1.16 | 1.18 | 1.17 | 1.16 |
